For one assay, the target named is D(2) dopamine receptor (Rattus norvegicus, UniProt P61169). In words: Binding affinity towards dopamine receptor D2 using [3H]-raclopride radioligand.
Assay [1] has as its target T1, 5-hydroxytryptamine receptor 1A (Rattus norvegicus, UniProt P19327).
T1 sequence (P19327 whole entry): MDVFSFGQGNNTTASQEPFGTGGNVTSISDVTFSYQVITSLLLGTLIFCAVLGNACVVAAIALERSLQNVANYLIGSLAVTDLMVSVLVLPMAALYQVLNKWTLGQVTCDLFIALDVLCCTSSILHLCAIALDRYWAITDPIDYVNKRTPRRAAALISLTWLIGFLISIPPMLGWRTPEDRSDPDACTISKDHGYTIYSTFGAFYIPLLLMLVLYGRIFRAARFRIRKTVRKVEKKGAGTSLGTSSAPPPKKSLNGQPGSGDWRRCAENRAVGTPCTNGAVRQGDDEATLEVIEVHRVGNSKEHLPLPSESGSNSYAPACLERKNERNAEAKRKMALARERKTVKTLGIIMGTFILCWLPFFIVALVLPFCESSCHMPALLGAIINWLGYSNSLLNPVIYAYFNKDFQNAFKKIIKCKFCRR
In words: Binding affinity towards rat 5-hydroxytryptamine 1A receptor using [3H]8-OH-DPAT radioligand.

Chain of D(2) dopamine receptor (P61169 whole entry): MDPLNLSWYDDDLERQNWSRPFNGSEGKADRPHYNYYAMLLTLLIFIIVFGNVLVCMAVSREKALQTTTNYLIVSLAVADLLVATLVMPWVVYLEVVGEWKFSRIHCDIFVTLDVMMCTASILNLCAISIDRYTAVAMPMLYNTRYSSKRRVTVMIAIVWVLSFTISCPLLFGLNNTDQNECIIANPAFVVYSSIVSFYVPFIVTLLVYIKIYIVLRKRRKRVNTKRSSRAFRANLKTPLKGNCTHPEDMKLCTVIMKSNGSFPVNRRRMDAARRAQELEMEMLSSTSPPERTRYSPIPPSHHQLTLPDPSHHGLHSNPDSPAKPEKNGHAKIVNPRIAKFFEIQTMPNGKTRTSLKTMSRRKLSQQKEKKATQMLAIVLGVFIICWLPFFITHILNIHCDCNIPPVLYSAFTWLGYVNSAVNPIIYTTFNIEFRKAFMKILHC

The Ki is the dissociation constant of the complex between target and ligand, obtained from inhibition or displacement. At D(2) dopamine receptor, `O=c1n(CCCN2CCN(c3ccccc3)CC2)c(O)c2n1CCCC2` [2-[3-(4-Phenyl-piperazin-1-yl)-propyl]-tetrahydro-imidazo[1,5-a]pyridine-1,3-dione] gave an inhibitory constant (Ki) of over 1000 nM.

The molecule `O=c1n(CCCCN2CCN(c3ccc(F)cc3)CC2)c(O)c2n1CCC2` [2-{4-[4-(4-Fluoro-phenyl)-piperazin-1-yl]-butyl}-tetrahydro-pyrrolo[1,2-c]imidazole-1,3-dione] yielded an inhibitory constant (Ki) on D(2) dopamine receptor of over 1000 nM.

On to `O=c1n(CCCCN2CCN(c3ccc([N+](=O)[O-])cc3)CC2)c(O)c2n1CCC2`, for which the Ki (in assay [1]; on D(2) dopamine receptor) was over 1000 nM each time.

`COc1ccccc1N1CCN(Cn2c(O)c3n(c2=O)CCC3)CC1` [2-[4-(2-Methoxy-phenyl)-piperazin-1-ylmethyl]-tetrahydro-pyrrolo[1,2-c]imidazole-1,3-dione] registered an inhibition constant Ki at D(2) dopamine receptor of over 1000 nM.

At D(2) dopamine receptor, `O=c1n(CCCN2CCN(c3ccc(F)cc3)CC2)c(O)c2n1CCCC2` returned a Ki of over 1000 nM.

Molecule `O=c1n(CCN2CCN(c3cccc(C(F)(F)F)c3)CC2)c(O)c2n1CCC2` [2-{2-[4-(3-Trifluoromethyl-phenyl)-piperazin-1-yl]-ethyl}-tetrahydro-pyrrolo[1,2-c]imidazole-1,3-dione] returned an inhibition constant (Ki) at D(2) dopamine receptor of over 1000 nM.

Turning to `O=c1n(CN2CCN(c3ccccc3)CC2)c(O)c2n1CCC2` [2-(4-Phenyl-piperazin-1-ylmethyl)-tetrahydro-pyrrolo[1,2-c]imidazole-1,3-dione], the inhibition constant Ki at D(2) dopamine receptor is over 10000 nM.

As for `O=c1n(CCN2CCN(c3ccccc3)CC2)c(O)c2n1CCC2` [2-[2-(4-Phenyl-piperazin-1-yl)-ethyl]-tetrahydro-pyrrolo[1,2-c]imidazole-1,3-dione], the Ki (in assay [1]; at D(2) dopamine receptor) was over 1000 nM throughout.

`COc1ccccc1N1CCN(CCCn2c(O)c3n(c2=O)CCCC3)CC1` [2-{3-[4-(2-Methoxy-phenyl)-piperazin-1-yl]-propyl}-tetrahydro-imidazo[1,5-a]pyridine-1,3-dione] yielded a Ki at D(2) dopamine receptor of over 1000 nM.

`O=c1n(CCCN2CCN(c3ccc(F)cc3)CC2)c(O)c2n1CCC2` [2-{3-[4-(4-Fluoro-phenyl)-piperazin-1-yl]-propyl}-tetrahydro-pyrrolo[1,2-c]imidazole-1,3-dione]: the inhibitory constant (Ki) (in assay [1]; at D(2) dopamine receptor) was over 1000 nM each time.

As to `O=c1n(CCCCN2CCN(c3ccc([N+](=O)[O-])cc3)CC2)c(O)c2n1CCCC2` [2-{4-[4-(4-Nitro-phenyl)-piperazin-1-yl]-butyl}-tetrahydro-imidazo[1,5-a]pyridine-1,3-dione], the inhibitory constant (Ki) (in assay [1]; at D(2) dopamine receptor) was over 1000 nM throughout.

The molecule `COc1ccccc1N1CCN(CCCn2c(O)c3n(c2=O)CCC3)CC1` [2-{3-[4-(2-Methoxy-phenyl)-piperazin-1-yl]-propyl}-tetrahydro-pyrrolo[1,2-c]imidazole-1,3-dione] showed a Ki on D(2) dopamine receptor of over 1000 nM.

As for `O=c1n(CN2CCN(c3cccc(C(F)(F)F)c3)CC2)c(O)c2n1CCCC2` [2-[4-(3-Trifluoromethyl-phenyl)-piperazin-1-ylmethyl]-tetrahydro-imidazo[1,5-a]pyridine-1,3-dione], the inhibition constant Ki at D(2) dopamine receptor was over 1000 nM.

For the molecule `O=c1n(CCN2CCN(c3ccc(F)cc3)CC2)c(O)c2n1CCCC2` [2-{2-[4-(4-Fluoro-phenyl)-piperazin-1-yl]-ethyl}-tetrahydro-imidazo[1,5-a]pyridine-1,3-dione], the Ki (in assay [1]; at D(2) dopamine receptor) was over 10000 nM throughout.

In turn, `O=c1n(CCN2CCN(c3cccc(C(F)(F)F)c3)CC2)c(O)c2n1CCCC2` [2-{2-[4-(3-Trifluoromethyl-phenyl)-piperazin-1-yl]-ethyl}-tetrahydro-imidazo[1,5-a]pyridine-1,3-dione] registered a Ki at D(2) dopamine receptor of over 1000 nM.

On D(2) dopamine receptor, `COc1ccccc1N1CCN(CCCCn2c(O)c3n(c2=O)CCCC3)CC1` [2-{4-[4-(2-Methoxy-phenyl)-piperazin-1-yl]-butyl}-tetrahydro-imidazo[1,5-a]pyridine-1,3-dione] returned a Ki of over 1000 nM.

At D(2) dopamine receptor, `O=c1n(CCCCN2CCN(c3ccccc3)CC2)c(O)c2n1CCCC2` [2-[4-(4-Phenyl-piperazin-1-yl)-butyl]-tetrahydro-imidazo[1,5-a]pyridine-1,3-dione] had a Ki of over 1000 nM.

At D(2) dopamine receptor, `O=c1n(CCN2CCN(c3cccc(Cl)c3)CC2)c(O)c2n1CCC2` [2-{2-[4-(3-Chloro-phenyl)-piperazin-1-yl]-ethyl}-tetrahydro-pyrrolo[1,2-c]imidazole-1,3-dione] yielded a Ki of over 1000 nM.

For the molecule `O=c1n(CCCN2CCN(c3ccc([N+](=O)[O-])cc3)CC2)c(O)c2n1CCC2` [2-{3-[4-(4-Nitro-phenyl)-piperazin-1-yl]-propyl}-tetrahydro-pyrrolo[1,2-c]imidazole-1,3-dione], the inhibition constant Ki (in assay [1]; on D(2) dopamine receptor) was over 10000 nM in each case.

As to `O=c1n(CCN2CCN(c3ccc(F)cc3)CC2)c(O)c2n1CCC2` [2-{2-[4-(4-Fluoro-phenyl)-piperazin-1-yl]-ethyl}-tetrahydro-pyrrolo[1,2-c]imidazole-1,3-dione], the inhibitory constant (Ki) (in assay [1]; at D(2) dopamine receptor) was over 10000 nM each time.

As to `O=c1n(CN2CCN(c3cccc(C(F)(F)F)c3)CC2)c(O)c2n1CCC2` [2-[4-(3-Trifluoromethyl-phenyl)-piperazin-1-ylmethyl]-tetrahydro-pyrrolo[1,2-c]imidazole-1,3-dione], the Ki on D(2) dopamine receptor is over 1000 nM.

For the molecule `O=c1n(CCCN2CCN(c3cccc(C(F)(F)F)c3)CC2)c(O)c2n1CCC2` [2-{3-[4-(3-Trifluoromethyl-phenyl)-piperazin-1-yl]-propyl}-tetrahydro-pyrrolo[1,2-c]imidazole-1,3-dione], the Ki on D(2) dopamine receptor was over 1000 nM.

For `O=c1n(CN2CCN(c3ccc([N+](=O)[O-])cc3)CC2)c(O)c2n1CCC2` [2-[4-(4-Nitro-phenyl)-piperazin-1-ylmethyl]-tetrahydro-pyrrolo[1,2-c]imidazole-1,3-dione], the Ki was over 1000 nM in assay [1] and over 10000 nM at D(2) dopamine receptor.

On D(2) dopamine receptor, `O=c1n(CCCN2CCN(c3cccc(C(F)(F)F)c3)CC2)c(O)c2n1CCCC2` [2-{3-[4-(3-Trifluoromethyl-phenyl)-piperazin-1-yl]-propyl}-tetrahydro-imidazo[1,5-a]pyridine-1,3-dione] came in with an inhibitory constant (Ki) of over 1000 nM.

As to `O=c1n(CCN2CCN(c3ccccc3)CC2)c(O)c2n1CCCC2` [2-[2-(4-Phenyl-piperazin-1-yl)-ethyl]-tetrahydro-imidazo[1,5-a]pyridine-1,3-dione], the Ki (in assay [1]; on D(2) dopamine receptor) was over 1000 nM throughout.

On D(2) dopamine receptor, `O=c1n(CCCN2CCN(c3cccc(Cl)c3)CC2)c(O)c2n1CCC2` [2-{3-[4-(3-Chloro-phenyl)-piperazin-1-yl]-propyl}-tetrahydro-pyrrolo[1,2-c]imidazole-1,3-dione] yielded an inhibition constant (Ki) of over 1000 nM.

In the case of `O=c1n(CN2CCN(c3ccc(F)cc3)CC2)c(O)c2n1CCCC2` [2-[4-(4-Fluoro-phenyl)-piperazin-1-ylmethyl]-tetrahydro-imidazo[1,5-a]pyridine-1,3-dione], on D(2) dopamine receptor, the inhibition constant Ki is over 10000 nM.

As for `O=c1n(CCN2CCN(c3ccc([N+](=O)[O-])cc3)CC2)c(O)c2n1CCC2` [2-{2-[4-(4-Nitro-phenyl)-piperazin-1-yl]-ethyl}-tetrahydro-pyrrolo[1,2-c]imidazole-1,3-dione], the Ki (in assay [1]; on D(2) dopamine receptor) was over 10000 nM each time.

With `O=c1n(CN2CCN(c3ccc([N+](=O)[O-])cc3)CC2)c(O)c2n1CCCC2` [2-[4-(4-Nitro-phenyl)-piperazin-1-ylmethyl]-tetrahydro-imidazo[1,5-a]pyridine-1,3-dione], the results for the inhibition constant (Ki) (in assay [1]; at D(2) dopamine receptor) were over 1000 nM and over 10000 nM, respectively.

On D(2) dopamine receptor, `O=c1n(CN2CCN(c3ccc(F)cc3)CC2)c(O)c2n1CCC2` [2-[4-(4-Fluoro-phenyl)-piperazin-1-ylmethyl]-tetrahydro-pyrrolo[1,2-c]imidazole-1,3-dione] gave a Ki of over 10000 nM.

For the molecule `O=c1n(CN2CCN(c3cccc(Cl)c3)CC2)c(O)c2n1CCCC2` [2-[4-(3-Chloro-phenyl)-piperazin-1-ylmethyl]-tetrahydro-imidazo[1,5-a]pyridine-1,3-dione], the Ki at D(2) dopamine receptor was over 10000 nM.

At D(2) dopamine receptor, `O=c1n(CN2CCN(c3ccccc3)CC2)c(O)c2n1CCCC2` [2-(4-Phenyl-piperazin-1-ylmethyl)-tetrahydro-imidazo[1,5-a]pyridine-1,3-dione] had a Ki of over 10000 nM.

On to `O=c1n(CCCCN2CCN(c3cccc(C(F)(F)F)c3)CC2)c(O)c2n1CCC2` [2-{4-[4-(3-Trifluoromethyl-phenyl)-piperazin-1-yl]-butyl}-tetrahydro-pyrrolo[1,2-c]imidazole-1,3-dione], for which the inhibitory constant (Ki) on D(2) dopamine receptor is over 1000 nM.

`O=c1n(CCN2CCN(c3cccc(Cl)c3)CC2)c(O)c2n1CCCC2` [2-{2-[4-(3-Chloro-phenyl)-piperazin-1-yl]-ethyl}-tetrahydro-imidazo[1,5-a]pyridine-1,3-dione] came in with a Ki on D(2) dopamine receptor of over 1000 nM.

`O=c1n(CCCN2CCN(c3ccccc3)CC2)c(O)c2n1CCC2` [2-[3-(4-Phenyl-piperazin-1-yl)-propyl]-tetrahydro-pyrrolo[1,2-c]imidazole-1,3-dione]: the inhibition constant (Ki) at D(2) dopamine receptor was over 1000 nM.

Regarding `COc1ccccc1N1CCN(Cn2c(O)c3n(c2=O)CCCC3)CC1` [2-[4-(2-Methoxy-phenyl)-piperazin-1-ylmethyl]-tetrahydro-imidazo[1,5-a]pyridine-1,3-dione], the Ki at D(2) dopamine receptor is over 10000 nM.

`O=c1n(CCCN2CCN(c3cccc(Cl)c3)CC2)c(O)c2n1CCCC2` [2-{3-[4-(3-Chloro-phenyl)-piperazin-1-yl]-propyl}-tetrahydro-imidazo[1,5-a]pyridine-1,3-dione] gave an inhibition constant Ki at D(2) dopamine receptor of over 1000 nM.

Take `O=c1n(CN2CCN(c3cccc(Cl)c3)CC2)c(O)c2n1CCC2` [2-[4-(3-Chloro-phenyl)-piperazin-1-ylmethyl]-tetrahydro-pyrrolo[1,2-c]imidazole-1,3-dione]: the Ki at D(2) dopamine receptor is over 10000 nM.

These data come from BindingDB's records for doi:10.1021/jm960416g (Universidad Complutense, 1996).
